Measured values as given in ChEMBL document CHEMBL5352421, “Identification of novel piperazine-tethered phthalazines as selective CDK1 inhibitors endowed with in vitro anticancer activity toward the pancreatic cancer” (Eur J Med Chem, 2022).

Assays:
KG-1 = assay: Antiproliferative activity against human KG-1 cells assessed as growth inhibition incubated at 10 uM for 24 hrs by MTT assay relative to control; assay type: functional; conditions: read-out: GI
[1] = Antiproliferative activity against human MDA-PATC53 cells assessed as growth inhibition incubated for 24 hrs by MTT assay; assay type: functional, cell-based; conditions: MDA-PATC53, 24 h
HT-29 = assay: Antiproliferative activity against human HT-29 cells assessed as growth inhibition incubated at 10 uM for 24 hrs by MTT assay relative to control; assay type: functional; conditions: read-out: GI
[2] = target: Protein-tyrosine kinase 2-beta (Homo sapiens, UniProt Q14289); assay: Inhibition of PTK2B (unknown origin) by FRET assay
Sequence of Protein-tyrosine kinase 2-beta (Q14289 whole entry): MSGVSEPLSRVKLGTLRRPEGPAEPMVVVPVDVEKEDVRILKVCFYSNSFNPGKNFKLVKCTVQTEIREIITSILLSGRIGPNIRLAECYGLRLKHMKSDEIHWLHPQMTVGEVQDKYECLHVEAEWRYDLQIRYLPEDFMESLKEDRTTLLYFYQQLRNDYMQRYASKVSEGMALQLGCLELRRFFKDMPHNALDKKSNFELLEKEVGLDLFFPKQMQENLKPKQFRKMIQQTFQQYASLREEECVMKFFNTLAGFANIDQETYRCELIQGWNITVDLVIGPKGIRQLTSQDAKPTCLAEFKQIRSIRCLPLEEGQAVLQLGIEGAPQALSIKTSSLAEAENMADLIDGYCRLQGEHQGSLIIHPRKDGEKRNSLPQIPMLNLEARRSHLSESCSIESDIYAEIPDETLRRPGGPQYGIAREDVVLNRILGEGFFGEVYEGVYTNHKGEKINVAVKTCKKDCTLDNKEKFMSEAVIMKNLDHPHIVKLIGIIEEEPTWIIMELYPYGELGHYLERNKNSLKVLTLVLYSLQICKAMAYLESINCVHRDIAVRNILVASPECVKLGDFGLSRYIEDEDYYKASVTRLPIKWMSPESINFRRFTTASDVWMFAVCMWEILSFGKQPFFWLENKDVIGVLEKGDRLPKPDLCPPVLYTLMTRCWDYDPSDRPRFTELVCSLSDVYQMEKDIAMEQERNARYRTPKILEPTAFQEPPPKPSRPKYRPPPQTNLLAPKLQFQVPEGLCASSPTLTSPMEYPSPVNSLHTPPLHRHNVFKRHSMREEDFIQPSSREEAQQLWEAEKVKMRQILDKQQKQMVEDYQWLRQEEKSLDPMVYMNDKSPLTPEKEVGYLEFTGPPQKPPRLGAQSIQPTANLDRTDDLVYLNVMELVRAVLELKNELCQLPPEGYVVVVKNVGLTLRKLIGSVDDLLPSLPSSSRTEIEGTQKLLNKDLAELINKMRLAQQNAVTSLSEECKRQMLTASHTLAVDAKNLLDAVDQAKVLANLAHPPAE

SK-MEL-1 = assay: Antiproliferative activity against human SK-MEL-1 cells assessed as growth inhibition incubated at 10 uM for 24 hrs by MTT assay relative to control; assay type: functional; conditions: read-out: GI
G-361 = assay: Antiproliferative activity against human G-361 cells assessed as growth inhibition incubated at 10 uM for 24 hrs by MTT assay relative to control; assay type: functional; conditions: read-out: GI
[3] = target: Cyclin-dependent kinase 5 (Homo sapiens, UniProt Q00535); assay: Inhibition of CDK5 (unknown origin) by FRET assay
Sequence of Cyclin-dependent kinase 5 (Q00535 whole entry): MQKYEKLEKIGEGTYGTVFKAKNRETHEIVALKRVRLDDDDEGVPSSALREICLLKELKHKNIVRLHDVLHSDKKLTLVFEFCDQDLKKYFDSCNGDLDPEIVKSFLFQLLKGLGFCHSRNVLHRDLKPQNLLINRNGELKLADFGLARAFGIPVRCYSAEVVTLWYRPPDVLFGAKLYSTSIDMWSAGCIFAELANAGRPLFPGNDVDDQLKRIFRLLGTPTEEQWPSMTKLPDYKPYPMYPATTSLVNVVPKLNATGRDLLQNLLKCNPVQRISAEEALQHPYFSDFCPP

[4] = Antiproliferative activity against human PL45 cells assessed as growth inhibition incubated for 24 hrs by MTT assay; assay type: functional, cell-based; conditions: PL45, 24 h
MCF7 = assay: Antiproliferative activity against human MCF7 cells assessed as growth inhibition incubated at 10 uM for 24 hrs by MTT assay relative to control; assay type: functional; conditions: read-out: GI
[5] = Selectivity index, ratio of IC50 for CDK5 (unknown origin) to CDK1 (unknown origin)
[6] = Selectivity index, ratio of IC50 for CDK2 (unknown origin) to CDK1 (unknown origin)
[7] = Antiproliferative activity against human PL45 cells assessed as growth inhibition incubated at 10 uM for 24 hrs by MTT assay relative to control; assay type: functional; conditions: read-out: GI
BT-549 = assay: Antiproliferative activity against human BT-549 cells assessed as growth inhibition incubated at 10 uM for 24 hrs by MTT assay relative to control; assay type: functional; conditions: read-out: GI
[8] = target: T1, Tyrosine-protein kinase receptor UFO (Homo sapiens, UniProt P30530); assay: Inhibition of AXL (unknown origin) by FRET assay
T1 sequence (P30530 whole entry): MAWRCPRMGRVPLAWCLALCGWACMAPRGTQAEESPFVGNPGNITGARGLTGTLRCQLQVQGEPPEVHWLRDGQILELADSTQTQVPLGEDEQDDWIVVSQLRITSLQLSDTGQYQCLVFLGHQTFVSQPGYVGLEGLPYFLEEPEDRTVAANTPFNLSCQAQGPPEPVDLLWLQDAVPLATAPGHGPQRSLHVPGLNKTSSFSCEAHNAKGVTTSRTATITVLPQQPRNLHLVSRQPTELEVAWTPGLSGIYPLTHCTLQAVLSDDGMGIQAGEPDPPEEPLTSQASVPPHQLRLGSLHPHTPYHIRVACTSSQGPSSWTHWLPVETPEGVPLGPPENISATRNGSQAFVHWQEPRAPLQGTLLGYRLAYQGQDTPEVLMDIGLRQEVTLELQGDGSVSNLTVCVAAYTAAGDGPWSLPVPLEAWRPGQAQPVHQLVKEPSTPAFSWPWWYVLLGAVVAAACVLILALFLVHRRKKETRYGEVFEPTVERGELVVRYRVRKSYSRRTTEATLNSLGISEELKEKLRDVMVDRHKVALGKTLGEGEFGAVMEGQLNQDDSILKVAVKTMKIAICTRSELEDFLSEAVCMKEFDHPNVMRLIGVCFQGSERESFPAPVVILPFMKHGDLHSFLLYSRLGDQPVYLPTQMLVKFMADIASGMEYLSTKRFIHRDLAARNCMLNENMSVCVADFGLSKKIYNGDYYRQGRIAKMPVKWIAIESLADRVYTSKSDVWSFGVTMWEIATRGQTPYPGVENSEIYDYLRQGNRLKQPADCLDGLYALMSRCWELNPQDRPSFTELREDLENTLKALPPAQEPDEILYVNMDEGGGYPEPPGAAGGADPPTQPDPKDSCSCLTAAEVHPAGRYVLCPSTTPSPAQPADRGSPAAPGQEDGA

A-375 = assay: Antiproliferative activity against human A-375 cells assessed as growth inhibition incubated at 10 uM for 24 hrs by MTT assay relative to control; assay type: functional; conditions: read-out: GI
[9] = target: Tyrosine-protein kinase JAK1 (Homo sapiens, UniProt P23458); assay: Inhibition of JAK1 (unknown origin) by FRET assay
Sequence of Tyrosine-protein kinase JAK1 (P23458 whole entry): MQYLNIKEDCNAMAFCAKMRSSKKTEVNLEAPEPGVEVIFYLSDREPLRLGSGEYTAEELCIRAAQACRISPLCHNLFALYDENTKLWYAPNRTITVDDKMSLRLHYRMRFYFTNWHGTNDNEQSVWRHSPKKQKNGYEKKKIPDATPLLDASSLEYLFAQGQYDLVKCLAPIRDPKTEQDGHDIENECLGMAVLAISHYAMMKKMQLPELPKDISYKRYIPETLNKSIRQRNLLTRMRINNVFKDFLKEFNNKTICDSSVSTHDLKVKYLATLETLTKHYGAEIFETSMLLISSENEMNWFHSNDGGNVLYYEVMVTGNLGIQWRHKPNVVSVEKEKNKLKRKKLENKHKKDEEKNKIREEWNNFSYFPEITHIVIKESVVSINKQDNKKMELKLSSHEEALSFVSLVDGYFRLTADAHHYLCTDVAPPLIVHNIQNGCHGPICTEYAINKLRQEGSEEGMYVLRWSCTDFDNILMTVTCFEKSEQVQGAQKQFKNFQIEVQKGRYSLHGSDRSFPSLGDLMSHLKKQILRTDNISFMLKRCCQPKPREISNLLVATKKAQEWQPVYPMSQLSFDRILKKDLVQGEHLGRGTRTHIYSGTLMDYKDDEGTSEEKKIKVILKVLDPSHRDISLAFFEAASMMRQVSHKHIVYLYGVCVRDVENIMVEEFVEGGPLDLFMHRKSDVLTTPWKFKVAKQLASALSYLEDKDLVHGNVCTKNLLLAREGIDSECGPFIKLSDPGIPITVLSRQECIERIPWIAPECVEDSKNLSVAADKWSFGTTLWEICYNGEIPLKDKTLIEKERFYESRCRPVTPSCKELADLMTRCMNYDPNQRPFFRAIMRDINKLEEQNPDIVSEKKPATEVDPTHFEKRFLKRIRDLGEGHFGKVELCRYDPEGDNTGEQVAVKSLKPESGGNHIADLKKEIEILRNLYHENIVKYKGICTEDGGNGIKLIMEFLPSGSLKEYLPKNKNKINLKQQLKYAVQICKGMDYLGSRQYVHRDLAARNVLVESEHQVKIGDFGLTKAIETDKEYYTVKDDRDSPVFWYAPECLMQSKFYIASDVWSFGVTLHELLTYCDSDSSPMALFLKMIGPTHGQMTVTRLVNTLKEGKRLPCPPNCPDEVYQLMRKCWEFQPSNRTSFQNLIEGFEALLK

[10] = target: Fibroblast growth factor receptor (Homo sapiens, UniProt P22607+P11362+P22455+P21802); assay: Inhibition of FGFR (unknown origin) by FRET assay; assay type: protein assay
[11] = target: Insulin-like growth factor 1 receptor (Homo sapiens, UniProt P08069); assay: Inhibition of IGF1R (unknown origin) by FRET assay
Sequence of Insulin-like growth factor 1 receptor (P08069 31-736 limits assumed): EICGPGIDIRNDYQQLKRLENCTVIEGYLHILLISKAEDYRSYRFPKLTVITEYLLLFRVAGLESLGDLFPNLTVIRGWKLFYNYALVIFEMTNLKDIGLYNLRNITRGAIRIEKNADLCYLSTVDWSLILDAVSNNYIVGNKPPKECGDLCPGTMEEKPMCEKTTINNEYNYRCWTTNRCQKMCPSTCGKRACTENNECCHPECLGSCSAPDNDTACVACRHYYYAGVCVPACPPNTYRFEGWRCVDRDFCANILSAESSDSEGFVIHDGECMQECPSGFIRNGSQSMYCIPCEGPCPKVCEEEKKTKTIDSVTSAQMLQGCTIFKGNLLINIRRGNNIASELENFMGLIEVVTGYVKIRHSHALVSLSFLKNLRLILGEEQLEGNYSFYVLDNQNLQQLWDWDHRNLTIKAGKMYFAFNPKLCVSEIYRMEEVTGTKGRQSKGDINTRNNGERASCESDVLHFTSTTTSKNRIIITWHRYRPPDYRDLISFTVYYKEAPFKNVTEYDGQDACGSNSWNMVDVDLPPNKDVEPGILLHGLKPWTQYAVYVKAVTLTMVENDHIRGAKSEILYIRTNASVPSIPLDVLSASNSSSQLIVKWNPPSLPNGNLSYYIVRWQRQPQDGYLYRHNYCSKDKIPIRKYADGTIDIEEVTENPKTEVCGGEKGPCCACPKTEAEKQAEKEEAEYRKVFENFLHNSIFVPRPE
Sequence of Insulin-like growth factor 1 receptor (P08069 741-1367 limits assumed): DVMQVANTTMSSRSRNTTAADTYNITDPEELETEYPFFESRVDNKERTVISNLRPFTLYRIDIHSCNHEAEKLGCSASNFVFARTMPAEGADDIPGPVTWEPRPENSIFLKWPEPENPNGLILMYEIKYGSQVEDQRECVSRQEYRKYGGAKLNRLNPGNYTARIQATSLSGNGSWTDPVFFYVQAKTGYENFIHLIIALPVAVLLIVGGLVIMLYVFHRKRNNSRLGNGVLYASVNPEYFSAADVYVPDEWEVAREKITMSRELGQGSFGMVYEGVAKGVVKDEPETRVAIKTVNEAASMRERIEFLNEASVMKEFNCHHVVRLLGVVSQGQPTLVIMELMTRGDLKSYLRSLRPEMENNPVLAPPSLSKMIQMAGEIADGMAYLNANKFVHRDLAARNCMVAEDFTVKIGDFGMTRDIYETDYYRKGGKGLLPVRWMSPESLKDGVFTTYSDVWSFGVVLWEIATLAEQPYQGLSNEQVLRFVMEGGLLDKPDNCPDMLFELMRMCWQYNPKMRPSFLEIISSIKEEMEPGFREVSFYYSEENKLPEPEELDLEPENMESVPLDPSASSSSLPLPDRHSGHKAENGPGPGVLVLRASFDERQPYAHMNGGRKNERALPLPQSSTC

MOLT-4 = assay: Antiproliferative activity against human MOLT-4 cells assessed as growth inhibition incubated at 10 uM for 24 hrs by MTT assay relative to control; assay type: functional; conditions: read-out: GI
[12] = target: Cyclin-dependent kinase 2 (Homo sapiens, UniProt P24941); assay: Inhibition of CDK2 (unknown origin) by FRET assay
[13] = target: Cyclin-dependent kinase 1 (Homo sapiens, UniProt P06493); assay: Inhibition of CDK1 (unknown origin) by FRET assay
Sequence of Cyclin-dependent kinase 1 (P06493 whole entry): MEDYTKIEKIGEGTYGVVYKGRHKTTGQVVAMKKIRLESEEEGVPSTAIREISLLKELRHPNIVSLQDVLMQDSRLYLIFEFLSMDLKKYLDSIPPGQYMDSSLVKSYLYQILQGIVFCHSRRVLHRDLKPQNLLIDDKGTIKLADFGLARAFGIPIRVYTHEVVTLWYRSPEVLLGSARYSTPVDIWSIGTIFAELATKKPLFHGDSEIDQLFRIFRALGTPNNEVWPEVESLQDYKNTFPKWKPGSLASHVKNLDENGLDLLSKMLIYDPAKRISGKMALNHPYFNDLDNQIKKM

[14] = target: Serine/threonine-protein kinase B-raf (Homo sapiens, UniProt P15056); assay: Inhibition of BRAF (unknown origin) by FRET assay
Sequence of Serine/threonine-protein kinase B-raf (P15056 whole entry): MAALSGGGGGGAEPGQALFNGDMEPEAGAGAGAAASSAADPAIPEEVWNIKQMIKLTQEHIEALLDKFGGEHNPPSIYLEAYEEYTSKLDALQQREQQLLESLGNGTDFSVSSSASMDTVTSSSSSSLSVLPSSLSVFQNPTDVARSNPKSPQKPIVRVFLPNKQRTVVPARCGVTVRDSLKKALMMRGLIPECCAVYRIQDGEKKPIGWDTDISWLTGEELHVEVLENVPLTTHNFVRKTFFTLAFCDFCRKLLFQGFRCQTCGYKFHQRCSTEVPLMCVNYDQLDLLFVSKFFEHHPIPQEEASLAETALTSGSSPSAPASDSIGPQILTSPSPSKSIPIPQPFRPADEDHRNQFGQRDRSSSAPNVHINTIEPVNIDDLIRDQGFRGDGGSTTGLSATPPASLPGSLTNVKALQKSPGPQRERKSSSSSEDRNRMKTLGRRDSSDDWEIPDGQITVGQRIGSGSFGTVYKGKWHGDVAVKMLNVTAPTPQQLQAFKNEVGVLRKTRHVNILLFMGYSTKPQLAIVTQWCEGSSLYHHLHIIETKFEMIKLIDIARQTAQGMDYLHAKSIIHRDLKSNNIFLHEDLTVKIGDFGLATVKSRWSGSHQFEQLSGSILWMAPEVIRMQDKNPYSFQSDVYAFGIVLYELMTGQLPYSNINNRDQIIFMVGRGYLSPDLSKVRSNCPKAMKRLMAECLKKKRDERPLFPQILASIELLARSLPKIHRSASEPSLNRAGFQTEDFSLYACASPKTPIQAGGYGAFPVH

T84 = assay: Antiproliferative activity against human T84 cells assessed as growth inhibition incubated at 10 uM for 24 hrs by MTT assay relative to control; assay type: functional; conditions: read-out: GI
[15] = Antiproliferative activity against human MDA-PATC53 cells assessed as growth inhibition incubated at 10 uM for 24 hrs by MTT assay relative to control; assay type: functional; conditions: read-out: GI

Compound	inhibition of growth at 10 µM (KG-1) [%]	IC50 [1] [µM]	inhibition of growth at 10 µM (HT-29) [%]	IC50 [2] [µM]	inhibition of growth at 10 µM (SK-MEL-1) [%]	inhibition of growth at 10 µM (G-361) [%]	IC50 [3] [µM]	IC50 [4] [µM]	inhibition of growth at 10 µM (MCF7) [%]	Ratio IC50 [5]	Ratio IC50 [6]	inhibition of growth at 10 µM [7] [%]	inhibition of growth at 10 µM (BT-549) [%]	IC50 [8] [µM]	inhibition of growth at 10 µM (A-375) [%]	IC50 [9] [µM]	IC50 [10] [µM]	IC50 [11] [µM]	inhibition of growth at 10 µM (MOLT-4) [%]	IC50 [12] [µM]	also measured
O=C(c1ccccc1)N1CCN(c2nnc(Cc3ccccc3)c3ccccc23)CC1	73.6	3.42	40.4	3.57	54.9	47.9	0.276	5.03	38.4	4.41	1.84	68.5	24.3	4.88	32.1	7.18	5.254	3.66	51.2	0.115	IC50 [13]: 0.0625 µM; IC50 [14]: 7.82 µM; inhibition of growth at 10 µM (T84): 26.3%; inhibition of growth at 10 µM [15]: 75.8%
COc1cccc(NC(=S)N2CCN(c3nnc(Cc4ccccc4)c4ccccc34)CC2)c1	28.5	3.88	60.2	4.49	49.3	31.2	0.705	5.76	34.2	7.98	4.82	66	52.1	7.95	60.1	3.54	3.853	1.13	31.2	0.426	IC50 [13]: 0.0884 µM; IC50 [14]: 3.88 µM; inhibition of growth at 10 µM (T84): 49.7%; inhibition of growth at 10 µM [15]: 76.3%
COc1ccc(C(=O)N2CCN(c3nnc(Cc4ccccc4)c4ccccc34)CC2)cc1	0.91	14.3	1.58	6.38	11.8	3.45	0.606	4.85	4.09	7.29	3.62	66.7	5.26	1.52	5.3	5.55	8.605	4.08	1.02	0.301	IC50 [13]: 0.0831 µM; IC50 [14]: 4.67 µM; inhibition of growth at 10 µM (T84): 2%; inhibition of growth at 10 µM [15]: 42%
COc1ccc(NC(=O)N2CCN(c3nnc(Cc4ccccc4)c4ccccc34)CC2)cc1	71.3	1.7	54.1	7.25	54.3	25.7	0.28	4.6	34	4.22	1.63	71.5	43.9	2.33	34.9	8.5	4.567	4.26	52.9	0.108	IC50 [13]: 0.0665 µM; IC50 [14]: 2.43 µM; inhibition of growth at 10 µM (T84): 48%; inhibition of growth at 10 µM [15]: 85.2%
O=C(Nc1ccc(Cl)c(C(F)(F)F)c1)N1CCN(c2nnc(Cc3ccccc3)c3ccccc23)CC1	1.35	8.6	18.9	2.68	3.34	2.47	0.405	13.1	2.2	3.91	6.97	42.4	1.08	6.95	9.17	5.18	8.565	4.25	5.22	0.722	IC50 [13]: 0.104 µM; IC50 [14]: 1.48 µM; inhibition of growth at 10 µM (T84): 4.71%; inhibition of growth at 10 µM [15]: 55.4%
S=C(Nc1ccc(Cl)cc1)N1CCN(c2nnc(Cc3ccccc3)c3ccccc23)CC1	8.92	11.9	10.8	5.21	5.4	1.08	0.358	6.75	7.64	3.29	3.13	64.1	18.6	3.63	8.39	6.61	5.278	6.3	19.6	0.341	IC50 [13]: 0.109 µM; IC50 [14]: 4.99 µM; inhibition of growth at 10 µM (T84): 12.2%; inhibition of growth at 10 µM [15]: 49.3%
COc1ccc(Cc2nnc(N3CCN(C(=O)c4ccccc4)CC3)c3ccccc23)cc1	12.1	4.07	5.09	4.33	2.02	8.66	0.391	12.9	11.4	4.3	5	44.6	19	5.49	10.3	5.6	6.332	1.53	9.47	0.455	IC50 [13]: 0.091 µM; IC50 [14]: 3.26 µM; inhibition of growth at 10 µM (T84): 18.3%; inhibition of growth at 10 µM [15]: 70.4%
O=C(c1ccc(Cl)cc1)N1CCN(c2nnc(Cc3ccccc3)c3ccccc23)CC1	8.36	13	4.9	3.5	10.4	24.7	0.835	8.45	18.6	7.32	1.21	57.4	0.65	3.51	15.3	3.39	2.628	8.75	12.1	0.138	IC50 [13]: 0.114 µM; IC50 [14]: 1.48 µM; inhibition of growth at 10 µM (T84): 16.7%; inhibition of growth at 10 µM [15]: 45.1%
